Where a name gives a salt, the structure may show the parent alone.

As usually defined, the IC50 is the concentration that inhibits the measured activity by half. The low end stands for greater potency in that assay, the high end for weaker potency in that assay.

This assay addresses T1, HCV polymerase (Hepatitis C virus genotype 1b, UniProt P26663).
T1 construct: a region encoding NS5B (J Virol 1991 March, 65(3), 1105-13, 544 amino acids after deletion of 47 amino acids on the C-terminal); 6xHis (C); made in house; host or cells: Escherichia coli
Nature of the assay: biochemical. Also noted: species or system HCV BK strain. Put shortly:
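His-tagged NS5B (BK strain, 47-aa C-terminal deletion, E. coli-expressed) at 0.5 μg/ml copied 5 μg/ml run-off RNA bearing the HCV 3′ UTR with 2 μM UTP plus [3H]UTP, 50 μM ATP/GTP, in pH 7.5 Tris with 5 mM MgCl2, 25 °C, 90 min. TCA-precipitated RNA was counted and IC50 calculated.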

T1 sequence (P26663 2420-2963): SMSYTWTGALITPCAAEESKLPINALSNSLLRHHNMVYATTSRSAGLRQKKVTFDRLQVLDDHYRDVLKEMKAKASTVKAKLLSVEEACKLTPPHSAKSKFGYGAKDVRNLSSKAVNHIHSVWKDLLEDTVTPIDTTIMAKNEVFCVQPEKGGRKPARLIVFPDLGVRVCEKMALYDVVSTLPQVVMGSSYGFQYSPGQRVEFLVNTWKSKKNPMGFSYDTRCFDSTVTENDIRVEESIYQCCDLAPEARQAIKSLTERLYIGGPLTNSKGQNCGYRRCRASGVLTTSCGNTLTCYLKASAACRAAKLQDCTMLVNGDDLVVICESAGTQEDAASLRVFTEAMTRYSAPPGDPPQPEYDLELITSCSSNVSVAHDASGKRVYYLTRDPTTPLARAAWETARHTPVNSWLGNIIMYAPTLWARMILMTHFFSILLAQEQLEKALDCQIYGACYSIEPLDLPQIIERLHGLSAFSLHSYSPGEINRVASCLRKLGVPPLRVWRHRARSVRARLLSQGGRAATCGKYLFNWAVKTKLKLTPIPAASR

As to `Cc1ccc2c(c1)N(CCN1CCC[C@@H](CCN(C)C(=O)N(C)C)C1)CCn1c-2c(C2CCCCC2)c2ccc(C(=O)O)cc21` [Example 1-559, 13-cyclohexyl-3-methyl-5-(2-{(S)-3-[2-(trimethylureido)ethyl]piperidin-1-yl}ethyl)-6,7-dihydro-5H-benzo[5,6][1,4]diazepino[7,1-a]indole-10-carboxylic acid dihydrochloride], the IC50 was less than 100 nM.
`CCN1CCCC(CCN2CCn3c(c(C4CCCCC4)c4ccc(C(=O)O)cc43)-c3ccc(C)cc32)C1` (stereo not shown) [Example 1-273, 13-cyclohexyl-5-[2-(1-ethylpiperidin-3-yl)ethyl]-3-methyl-6,7-dihydro-5H-benzo[5,6][1,4]diazepino[7,1-a]indole-10-carboxylic acid dihydrochloride] showed an IC50 of less than 100 nM.
Consider `CC(C)N(CCCN1CCn2c(c(C3CCCCC3)c3ccc(C(=O)O)cc32)-c2ccc(Cl)cc21)C(C)C` [Example 1-429, 3-chloro-13-cyclohexyl-5-(3-diisopropylaminopropyl)-6,7-dihydro-5H-benzo[5,6][1,4]diazepino[7,1-a]indole-10-carboxylic acid dihydrochloride], for which the half-inhibitory concentration (IC50) is less than 100 nM.
`COC(=O)Nc1ccc(C[C@H](NC(=O)c2ccc3c(C4CCCCC4)c4n(c3c2)CCOc2cc(OC)ccc2-4)c2nc(C)no2)cc1` [Example 2-407, methyl {4-[(S)-2-[(12-cyclohexyl-3-methoxy-6,7-dihydro-5-oxa-7a-azadibenzo[a,e]azulene-9-carbonyl)amino]-2-(3-methyl-1,2,4-oxadiazol-5-yl)ethyl]phenyl}carbamate] showed an IC50 of less than 100 nM.
In turn, `O=C1CCN(CCN2CCn3c(c(C4CCCCC4)c4ccc(C(=O)O)cc43)-c3ccccc32)CCN1` [Example 1-519, 13-cyclohexyl-5-[2-(5-oxo-1,4-diazepan-1-yl)ethyl]-6,7-dihydro-5H-benzo[5,6][1,4]diazepino[7,1-a]indole-10-carboxylic acid dihydrochloride] returned an IC50 of less than 100 nM.
Consider `CN(CCN1CCn2c(c(C3CCCCC3)c3ccc(C(=O)O)cc32)-c2ccccc21)C1CCN(S(C)(=O)=O)CC1` [Example 1-280, 13-cyclohexyl-5-{2-[N-(1-methanesulfonylpiperidin-4-yl)-N-methylamino]ethyl}-6,7-dihydro-5H-benzo[5,6][1,4]diazepino[7,1-a]indole-10-carboxylic acid], for which the half-maximal inhibitory concentration (IC50) was less than 100 nM.
`CC(=O)N1CCn2c(c(C3CCCCC3)c3ccc(C(=O)O)cc32)-c2ccccc21` [Example 1-19, 5-acetyl-13-cyclohexyl-6,7-dihydro-5H-benzo[5,6][1,4]diazepino[7,1-a]indole-10-carboxylic acid] yielded an IC50 of 100 to 1000 nM.
`CN(CCN1CCCCC1)c1cccc2c1OCCn1c-2c(C2CCCCC2)c2ccc(C(=O)O)cc21` [Example 2-474, 12-cyclohexyl-4-(N-methyl-N-[2-(piperidin-1-yl)ethyl]amino}-6,7-dihydro-5-oxa-7a-azadibenzo[a,e]azulene-9-carboxylic acid dihydrochloride] registered an IC50 of less than 100 nM.
As to `CN1CCCC(Oc2cccc3c2OCCn2c-3c(C3CCCCC3)c3ccc(C(=O)O)cc32)C1` (stereo not shown) [Example 2-469, 12-cyclohexyl-4-(1-methylpiperidin-3-yloxy)-6,7-dihydro-5-oxa-7a-azadibenzo[a,e]azulene-9-carboxylic acid monohydrochloride], the half-inhibitory concentration (IC50) was less than 100 nM.
In the case of `O=C(O)c1ccc2nc(C3(NC(=O)c4ccc5c(C6CCCCC6)c6n(c5c4)CCOc4ccccc4-6)CCC3)[nH]c2c1` [Example 2-160, 2-{1-[(12-cyclohexyl-6,7-dihydro-5-oxa-7a-azadibenzo[a,e]azulene-9-carbonyl)amino]cyclobutyl}-3H-benzimidazole-5-carboxylic acid] it was less than 100 nM; in that of `COC(=O)[C@H](Cc1cccc(C(F)(F)F)c1)NC(=O)c1ccc2c(C3CCCCC3)c3n(c2c1)CCOc1cc(OC)ccc1-3` [Example 2-352, methyl (S)-2-[(12-cyclohexyl-3-methoxy-6,7-dihydro-5-oxa-7a-azadibenzo[a,e]azulene-9-carbonyl)amino]-3-(3-trifluoromethylphenyl)propionate], less than 100 nM; in that of `CCC1CCCN(CCN2CCn3c(c(C4CCCCC4)c4ccc(C(=O)O)cc43)-c3ccc(OCc4ccccc4)cc32)C1` (stereo not shown) [Example 1-348, 3-benzyloxy-13-cyclohexyl-5-[2-(3-ethylpiperidin-1-yl)ethyl]-6,7-dihydro-5H-benzo[5,6][1,4]diazepino[7,1-a]indole-10-carboxylic acid dihydrochloride], less than 100 nM.
As to `CCOc1ccc2c(c1)N(C)CCn1c-2c(C2CCCCC2)c2ccc(C(=O)NC3(C(=O)Nc4ccc(/C=C/C(=O)O)cc4OC)CCC3)cc21` [Example 1-617, (E)-3-[4-({1-[(13-cyclohexyl-3-ethoxy-5-methyl-6,7-dihydro-5H-benzo[5,6][1,4]diazepino[7,1-a]indole-10-carbonyl)amino]cyclobutanecarbonyl}amino)-3-methoxyphenyl]acrylic acid], the IC50 was less than 100 nM.
In turn, `Cc1nc(C(C)(C)NC(=O)c2ccc3c(C4CCCCC4)c4n(c3c2)CCOc2ccccc2-4)n(CC(=O)O)c1C` [Example 2-265, (2-{1-[(12-cyclohexyl-6,7-dihydro-5-oxa-7a-azadibenzo[a,e]azulene-9-carbonyl)amino]-1-methylethyl}-4,5-dimethylimidazol-1-yl)acetic acid] had a concentration for half-maximal inhibition (IC50) of 100 to 1000 nM.
In the case of `COCC1CCCCN1CCN1CCn2c(c(C3CCCCC3)c3ccc(C(=O)O)cc32)-c2ccc(Cl)cc21` (stereo not shown) [Example 1-304, 3-chloro-13-cyclohexyl-5-[2-(2-methoxymethylpiperidin-1-yl)ethyl]-6,7-dihydro-5H-benzo[5,6][1,4]diazepino[7,1-a]indole-10-carboxylic acid dihydrochloride] it was less than 100 nM; in that of `COc1ccc2c(c1)OCCn1c-2c(C2CCCCC2)c2ccc(C(=O)O)cc21` [Example 2-4, 12-cyclohexyl-3-methoxy-6,7-dihydro-5-oxa-7a-azadibenzo[a,e]azulene-9-carboxylic acid], less than 100 nM; in that of `COc1ccc2c(c1)OCCn1c-2c(C2CCCCC2)c2ccc(C(=O)NC3(c4nc5ccc(C(C)(C)C(=O)O)cc5[nH]4)CCC3)cc21` [Example 2-445, 2-(2-{1-[(12-cyclohexyl-3-methoxy-6,7-dihydro-5-oxa-7a-azadibenzo[a,e]azulene-9-carbonyl)amino]cyclobutyl}-3H-benzimidazol-5-yl)-2-methylpropionic acid], less than 100 nM.
`CCN1CCN(C(=O)CN2CCn3c(c(C4CCCCC4)c4ccc(C(=O)NC)cc43)-c3ccccc32)CC1` [Example 1-84, 13-cyclohexyl-5-[2-(4-ethylpiperazin-1-yl)-2-oxoethyl]-N-methyl-6,7-dihydro-5H-benzo[5,6][1,4]diazepino[7,1-a]indole-10-carboxamide] yielded a concentration for half-maximal inhibition (IC50) of less than 100 nM.
Regarding `O=C(O)c1ccc2c(C3CCCCC3)c3n(c2c1)CCN(CCNCc1ccccn1)c1ccccc1-3` [Example 1-34, 13-cyclohexyl-5-{2-[(pyridin-2-ylmethyl)amino]ethyl}-6,7-dihydro-5H-benzo[5,6][1,4]diazepino[7,1-a]indole-10-carboxylic acid trihydrochloride], the IC50 was less than 100 nM.
In the case of `O=C(O)c1ccc2c(C3CCCCC3)c3n(c2n1)CCOc1cc(OCc2ccccc2)ccc1-3` [Example 7-8, 3-benzyloxy-12-cyclohexyl-6,7-dihydro-5-oxa-7a,8-diazadibenzo[a,e]azulene-9-carboxylic acid] it was less than 100 nM; in that of `CCN1CCCCC1CCN1CCn2c(c(C3CCCCC3)c3ccc(C(=O)O)cc32)-c2ccc(Cl)cc21` (stereo not shown) [Example 1-323, 3-chloro-13-cyclohexyl-5-[2-(1-ethylpiperidin-2-yl)ethyl]-6,7-dihydro-5H-benzo[5,6][1,4]diazepino[7,1-a]indole-10-carboxylic acid dihydrochloride], less than 100 nM; in that of `O=C(O)c1ccc2c(C3CCCCC3)c3n(c2c1)CCN(CCN1CCCCC1)c1cc(OC(F)(F)F)ccc1-3` [Example 1-522, 13-cyclohexyl-5-[2-(piperidin-1-yl)ethyl]-3-trifluoromethoxy-6,7-dihydro-5H-benzo[5,6][1,4]diazepino[7,1-a]indole-10-carboxylic acid dihydrochloride], less than 100 nM.
For `CCOc1ccc2c(c1)OCCn1c-2c(C2CCCCC2)c2ccc(C(=O)NC3(C(=O)Nc4ccc(/C=C/C(=O)O)cc4)CCC3)cc21` [Example 2-446, (E)-3-[4-({1-[(12-cyclohexyl-3-ethoxy-6,7-dihydro-5-oxa-7a-azadibenzo[a,e]azulene-9-carbonyl)amino]cyclobutanecarbonyl}amino)phenyl]acrylic acid], the IC50 is less than 100 nM.
In the case of `Cc1ccc2c(c1)N(C1CCN(C(=O)OCc3ccccc3)CC1)CCn1c-2c(C2CCCCC2)c2ccc(C(=O)O)cc21` [Example 1-558, 5-(1-benzyloxycarbonylpiperidin-4-yl)-13-cyclohexyl-3-methyl-6,7-dihydro-5H-benzo[5,6][1,4]diazepino[7,1-a]indole-10-carboxylic acid] it was 100 to 1000 nM; in that of `CCCN(CCN1CCCCC1)c1cccc2c1OCCn1c-2c(C2CCCCC2)c2ccc(C(=O)NC(C)(C)C(=O)O)cc21` [Example 2-276, 2-[(12-cyclohexyl-4-{N-[2-(piperidin-1-yl)ethyl]-N-propylamino}-6,7-dihydro-5-oxa-7a-azadibenzo[a,e]azulene-9-carbonyl)amino]-2-methylpropionic acid], less than 100 nM.
